{"source": "patent US7375106B2", "about": "“Synergistic combination of an opioid analgesic and a NSAID” (N.V. Organon, priority 2002, dated 2008)", "key": {"[1]": {"test_system": "licking of the formalin injected paw (Phase 2, 20-30 min)", "assay": "Formalin paw test, determination of ID50 of single agents (experiment 1)", "type": "in vivo, male mice (Hsd Ola:ICR)", "conditions": "single agent; for Effect on Phase 2 licking: i.v., increasing doses; for ID50 (μg/kg) for 2nd phase of licking (95% confidence limits): intravenously 15 min before formalin (20 μl; 3%), 20-30 min after formalin", "procedure": "Six mice were observed simultaneously.\nAll test agents were administered via a tail vein. […] Each animal was used once only.\nAnimals (n=6 for each dose/drug) received increasing doses of morphine, ketorolac, indomethacin, the hydrochloride salt of Org 41793 (Org 43273) or vehicle administered intravenously 15 min before injection of formalin (20 μl; 3%) into the plantar surface of the left hindpaw. Data were plotted as the mean time spent licking the formalin injected paw±s.e.m for each of the two time periods (0-5 & 20-30 min) and an ID50 for the group calculated. To calculate the ID50 for the second phase of licking, the time spent licking following test drug treatment was calculated as a percentage of the time spent licking by vehicle-treated mice. An ID50 was then calculated using a non-linear regression fit, sigmoidal dose-response with constants of 0 and 100 for the bottom and top, respectively (GraphPad Prism software)."}, "[2]": {"test_system": "licking of the formalin injected paw (Phase 2, 20-30 min)", "assay": "Formalin paw test, co-administration in constant dose ratio with isobolographic analysis (experiment 2)", "conditions": "for Theoretical ID50 (μg/kg) for 2nd phase of licking (95% confidence limits): component dose at theoretical additive point; for Theoretical ID50 (μg/kg) for 2nd phase of licking (95% confidence limits) / Experimental ID50 (μg/kg) for 2nd phase of licking (95% confidence limits): i.v.; for Experimental ID50 (μg/kg) for 2nd phase of licking (95% confidence limits): component dose, constant dose ratio; for Effect on amount of morphine or Org 41793 required to elicit antinociception: second phase of licking", "quoted_text": "In mice, recording the time spent licking or biting the injected paw is the most common method of behavioural assessment.\nExperiments were performed on male mice (Hsd Ola:ICR) from Harlan UK Ltd. (Bicester, UK). Subjects were grouped on receipt and acclimatised for a minimum of 5 days at a constant temperature (21°±1° C.) under a 12-hour light/12-hour dark cycle. Mice were tail-marked. At the end of the study all mice were euthanized with CO2 or cervical dislocation.\nFollowing subcutaneous formalin injection into the plantar surface of the paw, animals were placed in a Perspex box on a glass plate. A piece of black cardboard was placed on top of the box. A video camera (Sony) placed beneath the glass plate was then used to record the mice for 45 min after formalin injection. Six mice were observed simultaneously. The video camera was linked to a PC and the video images captured as MPEG files using a software package (Studio MP10). The MPEG file was later transferred to CD for offline analysis. A behavioural scoring program (The Observer) was then used to measure the time the mice spent licking the injected paw. Two blocks of time were analysed: 0-5 min (Phase 1) and 20-30 min (Phase 2). These two time periods were chosen to reflect the two phases of licking that typically occur after formalin injection.\nAll test agents were administered via a tail vein. […] Animals were weighed immediately prior to testing and all test agents were administered in a dosing volume of 5 ml/kg. Each animal was used once only.\nThe ID50 values calculated in experiment 1 for the second phase licking as previously described were used for this experiment. […] The ID50 of the total dose of the mixture was then calculated from this dose-response curve.\nTesting for a significant difference by t-test was not possible since confidence intervals (CIs) were not symmetric around the theoretical additive ID50."}, "[3]": {"conditions": "combination Org 41793 with ketorolac"}, "[4]": {"conditions": "combination Org 41793 with ketorolac, listed as ketorolac"}, "[5]": {"conditions": "combination Org 41793 with indomethacin"}, "[6]": {"conditions": "combination Org 41793 with indomethacin, listed as indomethacin"}}, "data": [{"smiles": "O=C(c1ccccc1)c1ccc2n1CCC2C(=O)O", "note": "(racemic) [Ketorolac, (±)-5-benzoyl-2,3-dihydro-1H-pyrrolizine-1-carboxylic acid, 2-amino-2-(hydroxymethyl)-1,3-propanediol]", "values": [{"measurement": "Effect on Phase 2 licking", "setting": "[1]", "value": "dose-dependent inhibition"}, {"measurement": "ID50 (μg/kg) for 2nd phase of licking (95% confidence limits)", "setting": "[1]", "value": "70 (40-134) μg/kg"}, {"measurement": "ID50 (μg/kg) for 2nd phase of licking (95% confidence limits)", "setting": "[1]; listed as ketorolac", "value": 70, "unit": "µg/kg"}, {"measurement": "Theoretical ID50 (μg/kg) for 2nd phase of licking (95% confidence limits)", "setting": "[2]; [3]", "value": "Ketorolac: 35 (20-67) μg/kg"}, {"measurement": "Theoretical ID50 (μg/kg) for 2nd phase of licking (95% confidence limits)", "setting": "[2]; [4]", "value": 35, "unit": "µg/kg"}, {"measurement": "Experimental ID50 (μg/kg) for 2nd phase of licking (95% confidence limits)", "setting": "[2]; [3]", "value": "Ketorolac: 5 (2-12) μg/kg"}, {"measurement": "Experimental ID50 (μg/kg) for 2nd phase of licking (95% confidence limits)", "setting": "[2]; [4]", "value": 5, "unit": "µg/kg"}, {"measurement": "Effect on amount of morphine or Org 41793 required to elicit antinociception", "setting": "[2]", "value": "opioid sparing"}]}, {"smiles": "COc1ccc2c(c1)c(CC(=O)O)c(C)n2C(=O)c1ccc(Cl)cc1", "note": "[Indomethacin, indomethacin]", "values": [{"measurement": "Effect on Phase 2 licking", "setting": "[1]", "value": "dose-dependent inhibition"}, {"measurement": "ID50 (μg/kg) for 2nd phase of licking (95% confidence limits)", "setting": "[1]", "value": "340 (218-531) μg/kg"}, {"measurement": "ID50 (μg/kg) for 2nd phase of licking (95% confidence limits)", "setting": "[1]; listed as indomethacin", "value": 340, "unit": "µg/kg"}, {"measurement": "Theoretical ID50 (μg/kg) for 2nd phase of licking (95% confidence limits)", "setting": "[2]; [5]", "value": "Indomethacin: 170 (109- μg/kg"}, {"measurement": "Theoretical ID50 (μg/kg) for 2nd phase of licking (95% confidence limits)", "setting": "[2]; [6]", "value": 170, "unit": "µg/kg"}, {"measurement": "Experimental ID50 (μg/kg) for 2nd phase of licking (95% confidence limits)", "setting": "[2]; [5]", "value": "Indomethacin: 40 (26-58) μg/kg"}, {"measurement": "Experimental ID50 (μg/kg) for 2nd phase of licking (95% confidence limits)", "setting": "[2]; [6]", "value": 40, "unit": "µg/kg"}, {"measurement": "Effect on amount of morphine or Org 41793 required to elicit antinociception", "setting": "[2]", "value": "opioid sparing"}]}, {"smiles": "CN1CC[C@]23c4c5ccc(O)c4O[C@H]2[C@@H](O)C=C[C@H]3[C@H]1C5.O.O.O.O.O.O=S(=O)(O)O", "note": "[Morphine, Morphine sulphate pentahydrate]", "values": [{"measurement": "Effect on Phase 2 licking", "setting": "[1]", "value": "dose-dependent inhibition"}, {"measurement": "ID50 (μg/kg) for 2nd phase of licking (95% confidence limits)", "setting": "[1]", "value": "870 (496-1522) μg/kg"}, {"measurement": "ID50 (μg/kg) for 2nd phase of licking (95% confidence limits)", "setting": "[1]; listed as morphine", "value": 870, "unit": "µg/kg"}]}, {"smiles": "C=CCN1C[C@H](C)N([C@@H](c2cccc(O)c2)c2cccc(C(=O)N(C)c3cccc(F)c3)c2)C[C@H]1C", "note": "[Org 41793, 3-[(αR)-α-((2S,5R)-4-allyl-2,5-dimethyl-1-piperazinyl)-3-hydroxybenzyl]-N-(3-fluorophenyl)-N-methylbenzamide]", "values": [{"measurement": "Effect on Phase 2 licking", "setting": "[1]", "value": "dose-dependent inhibition"}, {"measurement": "ID50 (μg/kg) for 2nd phase of licking (95% confidence limits)", "setting": "[1]", "value": "92 (60-140) μg/kg"}]}]}
